Among the data in US12358910B2, “Heteroaromatic compounds as Vanin inhibitors” (Boehringer Ingelheim International GmbH, priority 2018, dated 2025) are IC50 values, retold here.

The target in this assay is T1, FLAG-tagged Vanin-1 (AA 22-493, T26I) (Homo sapiens, UniProt O95497, T26I).
T1 construct: FLAG-tagged Vanin-1 (AA 22-493, T26I, produced internally); FLAG; made in house
T1 sequence (O95497 22-493 T26I): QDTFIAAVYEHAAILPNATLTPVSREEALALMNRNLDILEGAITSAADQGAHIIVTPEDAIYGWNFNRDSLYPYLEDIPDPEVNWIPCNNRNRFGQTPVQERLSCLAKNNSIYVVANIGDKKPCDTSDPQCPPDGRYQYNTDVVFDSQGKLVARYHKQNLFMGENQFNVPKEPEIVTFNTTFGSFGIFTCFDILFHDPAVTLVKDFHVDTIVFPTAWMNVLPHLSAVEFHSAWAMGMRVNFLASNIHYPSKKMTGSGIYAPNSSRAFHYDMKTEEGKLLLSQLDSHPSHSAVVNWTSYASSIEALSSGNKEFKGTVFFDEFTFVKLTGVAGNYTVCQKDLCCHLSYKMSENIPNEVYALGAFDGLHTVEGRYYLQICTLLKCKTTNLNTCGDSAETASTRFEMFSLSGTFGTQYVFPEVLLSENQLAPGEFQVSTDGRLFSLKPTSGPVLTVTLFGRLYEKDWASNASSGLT
The experiment in a line: Vanin-1 enzymatic assay (pantothenic acid formation, RapidFire mass spectrometry). It counts as biochemical. The note with it: 0.1 nM FLAG-tagged Vanin-1, 3 μM D-pantethine, room temperature; geometric mean in case of multiple measurements; read-out: VNN-1 IC50. The procedure: Description of Biological Properties Vanin-1 Enzymatic Assay:
The test compounds are dissolved in 100% DMSO at a concentration of 10 mM and in a first step diluted in DMSO to a concentration of 5 mM, followed by serial dilution steps in 100% DMSO. Dilution factor and number of dilution steps may vary according to needs. Typically 8 different concentrations by 1:5 dilutions are prepared, a further intermediate dilutions of the substances is carried out with assay buffer resulting in 1% final DMSO concentration in the assay.
0.1 nM of FLAG-tagged Vanin-1 (AA 22-493, T26I, produced internally) and test compounds are incubated at room temperature for 20 minutes in assay buffer (1 mM DTT, 0.0025% Brij-35, 50 mM HEPES, pH7.5). D-Pantethine (Sigma, Cat #P2125-5G) in assay buffer is added (final concentration 3 μM) and incubated for additional 30 minutes at room temperature. Total assay volume typically is 40 μl but might be adjusted according to needs. Reaction is stopped by adding equal volume of stop solution as the reaction mixture to reach 100 nM HD-pantothenic acid (as an internal standard) and 1% TFA. Assay plates are centrifuged for 2 minutes and the formation of pantothenic acid is detected by RapidFire Mass Spectrometry (mobile phase A: 0.1% formic acid and 0.01% trifluoroacetic acid in water; mobile phase B: 47.5% acetonitrile, 47.5% methanol, 0.1% formic acid and 0.01% trifluoroacetic acid in water) using a C18, 12 μL cartridge (Agilent Cat #G9205A).
The values given in Table I result from measurements of one or more samples. In case of multiple measurements the geometric mean values are given.

Take `C[C@H](Nc1ccc(C(=O)N2CC[C@H](N(C)C(=O)C3(C)CCC3)C2)cn1)c1cnc2[nH]ccc2c1` [Example 1.8]: the half-maximal inhibitory concentration (IC50) stood at 0.14 nM.

As to `C[C@H](Nc1ccc(C(=O)N2CC[C@H](N(C)C(=O)C3(C)CCC3)C2)cn1)c1cnc2[nH]ccc2c1` [Example 1.11], the IC50 is 0.2 nM.

Turning to `CC(=O)N(C)[C@H]1CCN(C(=O)c2ccc(N[C@@H](C)c3cccc4ccccc34)nc2)C1` [Example 2.2], the concentration for half-maximal inhibition (IC50) stood at 0.14 nM.

For the compound `CC(=O)N(C)[C@H]1CCN(C(=O)c2ccc(NCc3csc4ccc(Cl)cc34)nc2)C1` [Example 2.3], the IC50 is 0.21 nM.

`CC(=O)N(C)[C@H]1CCN(C(=O)c2ccc(NCc3cccc4c3ccn4C)nc2)C1` [Example 2.5]: the IC50 is 0.67 nM.

In the case of `CC(=O)N(C)[C@H]1CCN(C(=O)c2ccc(NCc3cc4ccccc4s3)nc2)C1` [Example 2.6], the concentration for half-maximal inhibition (IC50) amounted to 2.05 nM.

With `CC(=O)N(C)[C@H]1CCN(C(=O)c2ccc(NCc3cc(Br)cc4[nH]ncc34)nc2)C1` [Example 5.5], the IC50 worked out at 0.13 nM.

On to `CC(=O)N(C)[C@H]1CCN(C(=O)c2ccc(NCc3cnc4ccccc4c3)nc2)C1` [Example 5.11], for which the half-maximal inhibitory concentration (IC50) came to 0.21 nM.

`CC(=O)N(C)[C@H]1CCN(C(=O)c2ccc(NCc3ccc4[nH]ccc4c3)nc2)C1` [Example 5.17]: the IC50 came out at 0.64 nM.

As to `CC(=O)N(C)[C@H]1CCN(C(=O)c2ccc(NCc3ccc4nc(N)[nH]c4c3)nc2)C1` [Example 5.18], the concentration for half-maximal inhibition (IC50) was found to be 0.69 nM.

`CC(=O)N(C)[C@H]1CCN(C(=O)c2ccc(N[C@@H](C)c3nc4cc(Cl)c(F)cc4[nH]3)nc2)C1` [Example 5.20]: the IC50 is 0.76 nM.

On to `CC(=O)N(C)[C@H]1CCN(C(=O)c2ccc(N[C@H](C)c3cccc4c3cnn4C)nc2)C1` [Example 5.25], for which the half-maximal inhibitory concentration (IC50) worked out at 1.43 nM.

As to `CC(=O)N(C)[C@H]1CCN(C(=O)c2ccc(NCc3ccc4ncccc4c3)nc2)C1` [Example 5.26], the IC50 came out at 1.62 nM.

With `CC(=O)N(C)[C@H]1CCN(C(=O)c2ccc(N[C@H](C)c3cccc4nn(C)cc34)nc2)C1` [Example 5.27], the IC50 came out at 2.25 nM.

For `CC(=O)N(C)[C@H]1CCN(C(=O)c2ccc(NCc3n[nH]c4c3CCCC4)nc2)C1` [Example 5.28], the IC50 worked out at 2.65 nM.

As to `CC(=O)N(C)[C@H]1CCN(C(=O)c2ccc(NCc3cnn4cccnc34)nc2)C1` [Example 5.29], the half-inhibitory concentration (IC50) was 2.74 nM.

`CC(=O)N(C)[C@H]1CCN(C(=O)c2ccc(NCc3cccc4cccnc34)nc2)C1` [Example 5.30]: the IC50 came out at 3.02 nM.

Regarding `CC(=O)N(C)[C@H]1CCN(C(=O)c2ccc(NCc3nc4ccccc4s3)nc2)C1` [Example 5.31], the concentration for half-maximal inhibition (IC50) stood at 4.62 nM.

Take `CC(=O)N(C)[C@H]1CCN(C(=O)c2ccc(N[C@H](C)c3ccc4c(cnn4C)c3)nc2)C1` [Example 5.32]: the concentration for half-maximal inhibition (IC50) is 9.06 nM.

As to `CC(=O)N(C)[C@H]1CCN(C(=O)c2ccc(NCc3cc4ccccc4[nH]3)nc2)C1` [Example 5.33], the half-maximal inhibitory concentration (IC50) was determined as 9.33 nM.

For the compound `CC(=O)N(C)[C@H]1CCN(C(=O)c2ccc(NCc3ccc4onc(N)c4c3)nc2)C1` [Example 5.34], the IC50 was determined as 9.43 nM.

For `CC(=O)N(C)[C@H]1CCN(C(=O)c2ccc(N[C@@H](C)c3ccc4c(cnn4C)c3)nc2)C1` [Example 5.37], the half-inhibitory concentration (IC50) was found to be 0.24 nM.

Consider `CC(=O)N(C)[C@H]1CCN(C(=O)c2ccc(NCc3cc(C)cc4[nH]ncc34)nc2)C1` [Example 6.1, N-Methyl-N-[(3S)-1-(6-{[(6-methyl-1H-indazol-4-yl)methyl]amino}pyridine-3-carbonyl)pyrrolidin-3-yl]acetamide], for which the half-maximal inhibitory concentration (IC50) worked out at 0.14 nM.

Turning to `O=C(c1ccc(NCc2csc3ccccc23)nc1)N1CC[C@H](N2CCOC2=O)C1` [Example 8.1, 3-[(3S)-1-(6-{[(1-Benzothiophen-3-yl)methyl]amino}pyridine-3-carbonyl)pyrrolidin-3-yl]-13-oxazolidin-2-one], the IC50 was found to be 0.2 nM.

In the case of `O=C(c1ccc(NCc2csc3ccccc23)nc1)N1CC[C@H](N2CCCC2=O)C1` [Example 8.2], the concentration for half-maximal inhibition (IC50) amounted to 0.21 nM.
